Key:
Pin1 = target: T1, Pin1 (Homo sapiens, UniProt Q13526); test: Pin1 inhibition, protease-coupled assay; type: biochemical; details: 10 °C; for inhibition at 10 µM: Pin1, compound at 10 μM; for IC50: Pin1, protease-coupled assay
T1 construct: purchased Sino Biological Inc., Beijing, China
Method: To investigate the Pin1 inhibitory potency of all synthesized compounds, the inhibition ratio at 10 μM or IC50 of all synthesized compounds was determined using protease-coupled assay.
Pin1 inhibitory activities were measured at 10 °C by protease-coupled assay as reported previous. Suc-Ala-Glu-cis-Pro-Phe-4-nitroaniline (Bachem, Bubendorf, Switzerland) in 0.47 mol/L, LiCl/trifluoroethanol was used as the substrate. The assay buffer (860 μL of 35 mM HERES at pH 7.8), Pin1 (20 μL, Bought from Sino Biological Inc., Beijing, China) and target compounds (10 μL of varying comcentrations in DMSO) were pre-equilibtated in the cuvette at 10 °C for 30 min. Then, 150 uL of ice-cooled chymotrypsin (60 mg/mL in 0.001 M/HCl) was added and mixed immediately. Additional substrate (40 μL) was added to start the assay and the reaction was monitored by absorbance at 390 nm for 90 s. For each compound, four concentrations (10 μM, 3.3 μM, 1.1 μM, 0.37 μM) were chosen, and the assay was performed in duplicate. The data was analyzed by Graphpad Prism 6.0.

PC-3 cells = test: In vitro anti-proliferative MTT assay; type: cell-based, human; details: for GI50: Homo sapiens, PC-3 cells, MTT, 96 h; for antiproliferative activity against human prostate cancer PC-3 cells: result in words
Method: As for Pin1 was overexpressed in human prostate cancer cells, the antiproliferative activity of these benzimidazole derivatives against PC-3 cells were further evaluated by MTT assay. Meanwhile, the polar surface area (PSA) of these compounds was calculated under the optimal conformation since PSA is the key indicator of membrane permeability.
The tested cells were plated in 96-well microtiter plates with a density of 2,000 cells/well and incubated in a humidified atmosphere with 5% CO2 at 37 °C for 24 h. The cells were then exposed to tested compounds of different concentrations in triplicate. After incubated for 96 h, 50 μL of 3-(4,5-dimethylthiazol-2-yl)-2,5-diphenyltetrazolium bromide (MTT) solution (2 mg/mL) was added to each well and incubated for an additional 4 h. Then the suspernatant was discarded and the fromazan was dissolved in 200 μL of dimethyl sulfoxide (DMSO). The plate was oscillated subtly at room temperature for 10 min before the absorbance was measured at 570 nm by a microplate reader. Cell inhibitory ratio was calculated with the following formula:Inhibitory Rate (%) = [(Acontrol − Atreated)/Acontrol] × 100%(1)
The GI50 was determined as the concentration that caused half inhibition of cell proliferation. All experiments were performed three times independently, and the results were reported presented as the mean.

T1 sequence (Q13526 whole entry): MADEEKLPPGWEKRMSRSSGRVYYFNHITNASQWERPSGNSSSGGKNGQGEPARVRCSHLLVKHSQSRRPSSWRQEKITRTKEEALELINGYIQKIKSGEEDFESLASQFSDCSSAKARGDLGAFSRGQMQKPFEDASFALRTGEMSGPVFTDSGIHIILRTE

Compound | inhibition at 10 µM (Pin1) [%] | GI50 (PC-3 cells) [µM] | melting point [°C] | IC50 (Pin1) [µM] | antiproliferative activity against human prostate cancer PC-3 cells (PC-3 cells)
COc1ccc(NC(=O)CCn2c(/C=C/C(=O)O)nc3ccccc32)cc1 [Compound 6e, (E)-3-(1-(3-((4-Methoxyphenyl)amino)-3-oxopropyl)-1H-benzo[d]imidazol-2-yl)acrylic acid] | 48 | > 50 | 215 to 217 |  | 
O=C1C=CC(=O)c2c(O)cccc21 [Juglone, reference compound] |  | 4.89 |  | 10 | 
O=C(O)/C=C/c1nc2ccccc2n1CCC(=O)N1CCOCC1 [Compound 6b, (E)-3-(1-(3-Morpholino-3-oxopropyl)-1H-benzo[d]imidazol-2-yl) acrylic acid] | 27 | > 50 | 207 to 209 |  | 
Cc1ccc(NC(=O)CCn2c(-c3nc(C(=O)O)cs3)nc3ccccc32)cc1F [Compound 13j, 2-(1-(3-((3-Fluoro-4-methylphenyl)amino)-3-oxopropyl)-1H-benzo[d]imidazol-2-yl)thiazole-4-carboxylic acid] | 72 | > 50 | 204 to 206 |  | 
COc1ccc(CCNC(=O)CCn2c(/C=C/C(=O)O)nc3ccccc32)cc1 [Compound 6m, (E)-3-(1-(3-((4-Methoxyphenethyl)amino)-3-oxopropyl)-1H-benzo[d]imidazol-2-yl)acrylic acid] | 49 | > 50 | 219 to 220 |  | 
COc1cc(NC(=O)CCn2c(/C=C/C(=O)O)nc3ccccc32)cc(OC)c1 [Compound 6i, (E)-3-(1-(3-((3,5-dimethoxyphenyl)amino)-3-oxopropyl)-1H-benzo[d]imidazol-2-yl)acrylic acid] | 60 | > 50 | 203 to 204 |  | 
O=C(O)/C=C/c1nc2ccccc2n1CCC(=O)Nc1cccc(Br)c1 [Compound 6h, (E)-3-(1-(3-((3-Bromophenyl)amino)-3-oxopropyl)-1H-benzo[d]imidazol-2-yl)acrylic acid] | 90 | 9.89 | 209 to 210 | 0.64 | moderate antiproliferative activity
O=C(CCn1c(-c2nc(C(=O)O)cs2)nc2ccccc21)Nc1cccc(C(F)(F)F)c1 [Compound 13g, 2-(1-(3-Oxo-3-((3-(trifluoromethyl)phenyl)amino)propyl)-1H-benzo[d]imidazol-2-yl)thiazole-4-carboxylic acid] | 99 | > 50 | 178 to 180 | 0.37 | 
O=C(CCn1c(-c2nc(C(=O)O)cs2)nc2ccccc21)Nc1cc(Cl)cc(Cl)c1 [Compound 13i, 2-(1-(3-((3,5-Dichlorophenyl)amino)-3-oxopropyl)-1H-benzo[d]imidazol-2-yl)thiazole-4-carboxylic acid] | 80 | > 50 | 192 to 194 | 1.35 | 
Cc1ccc(NC(=O)CCn2c(CCC(=O)O)nc3ccccc32)cc1 [Compound 7a, 3-(1-(3-Oxo-3-(p-tolylamino)propyl)-1H-benzo[d]imidazol-2-yl)propanoic acid] | 60 | > 50 | 66 to 68 |  | 
O=C(O)/C=C/c1nc2ccccc2n1CCC(=O)Nc1ccccc1 [Compound 6c, (E)-3-(1-(3-Oxo-3-(phenylamino)propyl)-1H-benzo[d]imidazol-2-yl)acrylic acid] | 46 | > 50 | 228 to 230 |  | 
O=C(O)/C=C/c1nc2ccccc2n1CCC(=O)N1CCCCC1 [Compound 6a, (E)-3-(1-(3-oxo-3-(piperidin-1-yl)propyl)-1H-benzo[d]imidazol-2-yl)acrylic acid] | 28 | > 50 | 128 to 130 |  | 
Cc1cc(C)c(NC(=O)CCn2c(CCC(=O)O)nc3ccccc32)c(C)c1 [Compound 7c, 3-(1-(3-(Mesitylamino)-3-oxopropyl)-1H-benzo[d]imidazol-2-yl)propanoic acid] | 60 | 28.6 | 222 to 224 |  | moderate antiproliferative activity
COc1cc(NC(=O)CCn2c(-c3nc(C(=O)O)cs3)nc3ccccc32)cc(OC)c1 [Compound 13e, 2-(1-(3-((3,5-Dimethoxyphenyl)amino)-3-oxopropyl)-1H-benzo[d]imidazol-2-yl)thiazole-4-carboxylic acid] | 79 | > 50 | 208 to 210 |  | 
O=C(CCn1c(-c2nc(C(=O)O)cs2)nc2ccccc21)Nc1cccc([N+](=O)[O-])c1 [Compound 13f, 2-(1-(3-((3-Nitrophenyl)amino)-3-oxopropyl)-1H-benzo[d]imidazol-2-yl)thiazole-4-carboxylic acid] | 40 | > 50 | 234 to 236 |  | 
O=C(CCn1c(-c2nc(C(=O)O)cs2)nc2ccccc21)Nc1ccccc1Br [Compound 13c, 2-(1-(3-((2-Bbromophenyl)amino)-3-oxopropyl)-1H-benzo[d]imidazol-2-yl)thiazole-4-carboxylic acid] | 79 | > 50 | 186 to 188 |  | 
O=C(O)/C=C/c1nc2ccccc2n1CCC(=O)Nc1cc(Cl)cc(Cl)c1 [Compound 6n, (E)-3-(1-(3-((3,5-Dichlorophenyl)amino)-3-oxopropyl)-1H-benzo[d]imidazol-2-yl)acrylic acid] | 71 | 20.3 | 152 to 154 | 1.87 | moderate antiproliferative activity
O=C(O)/C=C/c1nc2ccccc2n1CCC(=O)NCc1ccc(Br)cc1 [Compound 6j, (E)-3-(1-(3-((4-Bromobenzyl)amino)-3-oxopropyl)-1H-benzo[d]imidazol-2-yl)acrylic acid] | 59 | > 50 | 210 to 212 |  | 
O=C(CCn1c(-c2nc(C(=O)O)cs2)nc2ccccc21)Nc1cccc(Br)c1 [Compound 13b, 2-(1-(3-((3-Bromophenyl)amino)-3-oxopropyl)-1H-benzo[d]imidazol-2-yl)thiazole-4-carboxylic acid] | 87 | > 50 | 210 to 212 | 0.89 | 
Cc1ccc(NC(=O)CCn2c(/C=C/C(=O)O)nc3ccccc32)cc1 [Compound 6d, (E)-3-(1-(3-Oxo-3-(p-tolylamino)propyl)-1H-benzo[d]imidazol-2-yl)acrylic acid] | 75 | 17.4 | 221 to 222 | 1.65 | moderate antiproliferative activity
Cc1cc(C)c(NC(=O)CCn2c(/C=C/C(=O)O)nc3ccccc32)c(C)c1 [Compound 6o, (E)-3-(1-(3-((2,4,6-Trimethylphenyl)amino)-3-oxopropyl)-1H-benzo[d]imidazol-2-yl)acrylic acid] | 84 | 11.1 | 275 to 278 | 0.97 | moderate antiproliferative activity
O=C(CCn1c(-c2nc(C(=O)O)cs2)nc2ccccc21)Nc1ccc(C(F)(F)F)cc1 [Compound 13h, 2-(1-(3-Oxo-3-((4-(trifluoromethyl)phenyl)amino)propyl)-1H-benzo[d]imidazol-2-yl)thiazole-4-carboxylic acid] | 81 | > 50 | 176 to 178 | 1.15 | 
COc1ccc(CNC(=O)CCn2c(/C=C/C(=O)O)nc3ccccc32)cc1 [Compound 6l, (E)-3-(1-(3-((4-Methoxybenzyl)amino)-3-oxopropyl)-1H-benzo[d]imidazol-2-yl)acrylic acid] | 42 | > 50 | 203 to 205 |  | 
O=C(CCn1c(-c2nc(C(=O)O)cs2)nc2ccccc21)Nc1ccccc1 [Compound 13a, 2-(1-(3-Oxo-3-(phenylamino)propyl)-1H-benzo[d]imidazol-2-yl)thiazole-4-carboxylic acid] | 73 | > 50 | 226 to 228 |  | 
